Holding throughout (assay type): functional, organism-based
The test system of assay [1] is Staphylococcus aureus. As to the kind of experiment: Induction of spa virulent gene expression in Staphylococcus aureus PC203 containing spa::lacZ assessed as color chage at 5 ug/ml at 37 degC in presence of chromogenic beta-galactosidase substrate and 1 to 50 % glucose solution.
Assay [2] concerns Staphylococcus aureus. The experiment in a line: Induction of spa virulent gene expression in Staphylococcus aureus PC203 containing spa::lacZ assessed as color chage at 5 ug/ml at 37 degC in presence of chromogenic beta-galactosidase substrate.
Assay [3] relates to Staphylococcus aureus. As to the kind of experiment: Induction of hla virulent gene expression in Staphylococcus aureus PC322 containing hla::lacZ assessed as color chage at 5 ug/ml at 37 degC in presence of chromogenic beta-galactosidase substrate and 1 to 50 % glucose solution.
Assay [4] has as its system Staphylococcus aureus. The experiment in a line: Induction of hla virulent gene expression in Staphylococcus aureus PC322 containing hla::lacZ assessed as color chage at 5 ug/ml at 37 degC in presence of chromogenic beta-galactosidase substrate.
In assay [5] the test system is Staphylococcus aureus. As to the kind of experiment: Induction of spa virulent gene expression in Staphylococcus aureus PC203 containing spa::lacZ assessed as color chage at 150 ug/ml at 37 degC in presence of chromogenic beta-galactosidase substrate.
The subject of assay [6] is Staphylococcus aureus. The experiment in a line: Induction of hla virulent gene expression in Staphylococcus aureus PC322 containing hla::lacZ assessed as color chage at 150 ug/ml at 37 degC in presence of chromogenic beta-galactosidase substrate and 1 to 50 % glucose solution.
Assay [7] concerns Staphylococcus aureus. The experiment in a line: Induction of spa virulent gene expression in Staphylococcus aureus PC203 containing spa::lacZ assessed as color chage at 150 ug/ml at 37 degC in presence of chromogenic beta-galactosidase substrate and 1 to 50 % glucose solution.
The test system of assay [8] is Staphylococcus aureus. As to the kind of experiment: Induction of hla virulent gene expression in Staphylococcus aureus PC322 containing hla::lacZ assessed as color chage at 150 ug/ml at 37 degC in presence of chromogenic beta-galactosidase substrate.

Structures are written as SMILES. Calls of active or inactive are those of the source. The rule behind the calls is not given here.

Turning to `CC[C@H]1OC(=O)[C@H](C)[C@@H](O[C@H]2C[C@@](C)(OC)[C@@H](O)[C@H](C)O2)[C@H](C)[C@@H](O[C@@H]2O[C@H](C)C[C@H](N(C)C)[C@H]2O)[C@](C)(O)C[C@@H](C)C(=O)[C@H](C)[C@@H](O)[C@]1(C)O`, the result in the assay on Staphylococcus aureus [1] and in the assay with Staphylococcus aureus [3] was inactive. Moreover, the outcome in the assay on Staphylococcus aureus [2] and in the assay with Staphylococcus aureus [4] was Active.
Consider `OC[C@H]1O[C@@H](Oc2c[nH]c3ccc(Br)c(Cl)c23)[C@H](O)[C@@H](O)[C@H]1O`, for which the outcome with Staphylococcus aureus [5] and in the assay on Staphylococcus aureus [8] was Active. The result in the assay on Staphylococcus aureus [6] and with Staphylococcus aureus [7] was inactive.

These data come from ChEMBL document CHEMBL1240357, “Method for screening compounds that influence virulence gene expression in Staphylococcus aureus” (Antimicrob Agents Chemother, 2010).
